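48-hour exposure; five concentrations; linearly interpolated endpoints. Here, GI50 denotes the concentration required for 50% inhibition of growth. TGI denotes the concentration required for complete inhibition of growth.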
How the values were obtained:
Test in all cases: NCI-60 cell line screen, 48 h
[1] = test system: HL-60(TB) leukemia
[2] = test system: NCI-H23 lung
[3] = test system: EKVX NSCLC
[4] = test system: CAKI-1 renal
[5] = test system: SK-MEL-28 melanoma
[6] = test system: SNB-75 CNS
[7] = test system: SF-539 CNS
[8] = test system: SW-620 colon
[9] = test system: NCI-H522 lung
[10] = test system: DU-145 prostate

SMILES	TGI [1] [µM]	TGI [2] [µM]	TGI [3] [µM]	TGI [4] [µM]	TGI [5] [µM]	TGI [6] [µM]	TGI [7] [µM]	TGI [8] [µM]	TGI [9] [µM]	GI50 [2] [µM]	GI50 [4] [µM]	GI50 [5] [µM]	GI50 [9] [µM]	GI50 [10] [µM]	TGI [10] [µM]	GI50 [1] [µM]	GI50 [3] [µM]	GI50 [7] [µM]	GI50 [8] [µM]
O=C1C2=C(c3ccccc31)C(c1ccccc1Cl)N1C(=O)CSC1=N2 (configuration not stated)	> 100	> 100	> 100	> 100	> 100	> 100	> 100	> 100	88.7										
COC1=C(OC)CCC(/C(C#N)=C/c2ccc(OC)c(OC)c2)=C1		> 100		> 100	> 100	43	> 100	> 100	70.5										
O=c1nc2cc(-c3ccccc3)[nH]c2nn1-c1c(Cl)cc(Cl)cc1Cl	57.1	50.2	74	68.5	> 100		33.5	> 100	52.1										
C=C(C)C1/C=C(/C(C)C)CC[C@]2(C)O[C@@H]2CC[C@H](C)CC1=O (some centres not stated)		> 100		> 100	> 100				> 100	87	35.3	> 100	> 100	49.6	> 100				
CCOC(=O)C(C)(C)Oc1ccc2c(-c3ccc(Cl)cc3)cc(=O)oc2c1	> 100	> 100	> 100		> 100	> 100	> 100	> 100											
CCC1(OC(C)=O)C(=O)OCc2c1cc1n(c2=O)Cc2cc3ccccc3nc2-1 (configuration not stated)		4.6	> 100	36	> 100	> 44.6	5.23	> 100	15.2										
COc1ccc(NC(=O)C(=O)C2NC(=S)NC2=O)c(OC)c1 (configuration not stated)	> 100	> 100	> 100		> 100	> 100	> 100	> 100											
CCc1cccc(C)c1NC(=O)NS(=O)(=O)c1ccc(C)cc1	> 100	> 100	> 100	> 100	> 100	> 100	> 100	> 100	> 100										
O=[N+]([O-])c1ccccc1C1N2CCCCC2[C@@H]2c3[nH]c4ccccc4c3CCN12 (some centres not stated)	16.8	27.5	41.3	29.9	26.6		25.1	23.4											
CC(=O)Nc1ccc(-c2nnc(SCC(=O)Nc3ccc(C)cc3)o2)cc1	64.4	29.6		24.9	31.4	58.6	27.3	33.3	33										
C/C(=N\Nc1ccc([N+](=O)[O-])cc1)C(=O)N(C)Nc1ccccc1	> 100	> 100	> 100			> 100	> 100	> 100	> 100										
Cc1cc(C)nc(NS(=O)(=O)c2ccc(NC(=O)c3cccc4cc5ccccc5nc34)cc2)n1		86.5	> 100	> 100	> 100	> 100	34	> 100	54.3										
COc1ccc(C2S/C(=C\c3ccc(OC)cc3OC)C(=O)N2NC(=O)Cc2ccccc2)cc1 (configuration not stated)	> 100	> 100		> 100		> 100	> 100	> 100	> 100										
CCN(CC)CCCNC(=O)Cc1ccccc1Nc1c(Cl)cccc1Cl	27.5	32.2	28.2		25.4	21.8	28.7	32.8											
Cc1ccc(Nc2ccc(Nc3ccc(C)cc3)c3c2C(=O)c2c(O)ccc(O)c2C3=O)cc1	> 100	> 100	> 100	> 100	> 100	> 100	> 100	> 100	> 100										
CC[C@@H]1OC2(C)CC(S(=O)(=O)c3ccccc3)CC1O2 (some centres not stated)	> 100	> 100	> 100	> 100	> 100	> 100	> 100	> 100	> 100										
Fc1ccccc1C1CC(C(c2ccccc2)c2ccccc2)=Nc2ccccc2S1 (configuration not stated)	16.6	24.7	24.5	20.1	25.1	5.48	50.4	31	21.7										

SMILES	TGI [1] [µM]	TGI [2] [µM]	TGI [3] [µM]	TGI [4] [µM]	TGI [5] [µM]	TGI [6] [µM]	TGI [7] [µM]	TGI [8] [µM]	TGI [9] [µM]	GI50 [2] [µM]	GI50 [4] [µM]	GI50 [5] [µM]	GI50 [9] [µM]	GI50 [10] [µM]	TGI [10] [µM]	GI50 [1] [µM]	GI50 [3] [µM]	GI50 [7] [µM]	GI50 [8] [µM]
COc1ccc(O)c2c1C(=O)CCCC2=O	> 100	> 100	> 100	> 100	> 100		> 100	> 100	> 100										
COC(=O)C1=C(C(=O)OC)C2(C(=O)OC)OC1(OC)C(C1(C(=O)OC)C(C(=O)OC)=C1C(=O)OC)=C2C(=O)OC (configuration not stated)	> 100	> 100	> 100		> 100	> 100	> 100	> 100	> 100										
COc1ccc2c(c1)CC[C@@H]1C2CC[C@]2(C)C(=O)NC(=O)CC12 (some centres not stated)	> 100	> 100	> 100	> 100			> 100	> 100	> 100										
C=C(C)[C@H]1CC/C(C)=C/CCC(C)C(=O)CC/C(CO)=C\[C@@H]1O (some centres not stated)	> 100	> 100	> 100	> 100	> 100		> 100	> 100	> 100	> 100	65.9	7.9	86.3	60.8	> 100	45.4	55.5	> 100	> 100
O=[N+]([O-])c1ccc(Cl)c(C2SCc3nc4ccccc4n32)c1 (configuration not stated)	78.5	> 100	> 100	76.1	> 100	89.9	> 100	88.3	> 100										
O=C1C(c2ccccc2)=C(c2ccccc2)C(c2ccc(CCCCCCc3ccc(C4=C(c5ccccc5)C(=O)C(c5ccccc5)=C4c4ccccc4)cc3)cc2)=C1c1ccccc1	> 100	> 100	> 100		> 100		> 100	> 100	> 100										
O=c1c([Se]c2coc3ccccc3c2=O)coc2ccccc12	> 100	29.6	33.6	39.8	30.8	29.1	24.2	34.3	32.5										
COc1cc(Br)c(CC2=NCCc3cc(OC)c(OC)cc32)cc1OC	38	> 100	> 100	> 100	> 100	> 100	87	> 100	65.2										
COc1ccccc1/C=C\c1cc(OC)c(OC)c(OC)c1	20.1		> 100	> 100	> 100	72.6	46.4	> 100	45.5										
COc1ccc2c(c1)OC13Oc4cc(OC)ccc4C=C1CCCC3=C2	> 100	> 100	> 100		> 100		> 100	> 100	> 100	> 100		> 100	> 100	> 100	> 100	> 100	> 100	> 100	> 100
CCOC(=O)C(C[Si](C)(C)C)P(=O)(OCC)OCC (configuration not stated)	> 100	> 100		> 100	> 100	> 100	> 100	> 100	> 100										
COc1ccc(C(=O)C=C2NCCN2)cc1	> 100	> 100	> 100	> 100	> 100	> 100	> 100	> 100	> 100										
COc1cc(C2C(C(=O)Nc3ccccc3)=C(C)NC(C)=C2C(=O)Nc2ccccc2)ccc1O	54.2	> 100	> 100		> 100	> 100	52.9	> 100											
O=c1[nH]c(=S)[nH]c(O)c1/C=C1\C=CC=N1	> 100	40	56.7	25.6	48.5	42.5	40.5	23.5	3.59										
Cn1c(=O)c2[nH]c(COc3ccc(C(C)(C)C)cc3)nc2n(C)c1=O	50.3	> 100	> 100	> 100	> 100		> 100	> 100	88	5.29	12	28.8	19.6	17.7	> 100	10.6	3.34	36.7	27
Cc1ccc(NC(=O)C(=O)Cc2nc3ccccc3o2)c(C)c1		> 100	> 100	> 100	> 100	> 100	> 100	> 100											
CCC1(CN(C)C)CC/C(=C\c2ccc3c(c2)OCO3)C1=O (configuration not stated)	> 100	> 100	> 100	> 100	> 100	> 100	> 100	> 100	> 100										

— PubChem BioAssay (NCI)
